{
  "source": "paper PMC4894409",
  "about": "(Scientific Reports, 2015)",
  "key": {"5-HT1A receptor": {"biological_target": "T1, 5-HT1A receptor (Mus musculus, UniProt Q64264)", "T1 construct": "The hippocampi of mice were dissected and homogenized in 5 volumes of ice-cold buffer; from tissue; host or cells: mouse hippocampus membranes", "T1 sequence (Q64264 1-421)": "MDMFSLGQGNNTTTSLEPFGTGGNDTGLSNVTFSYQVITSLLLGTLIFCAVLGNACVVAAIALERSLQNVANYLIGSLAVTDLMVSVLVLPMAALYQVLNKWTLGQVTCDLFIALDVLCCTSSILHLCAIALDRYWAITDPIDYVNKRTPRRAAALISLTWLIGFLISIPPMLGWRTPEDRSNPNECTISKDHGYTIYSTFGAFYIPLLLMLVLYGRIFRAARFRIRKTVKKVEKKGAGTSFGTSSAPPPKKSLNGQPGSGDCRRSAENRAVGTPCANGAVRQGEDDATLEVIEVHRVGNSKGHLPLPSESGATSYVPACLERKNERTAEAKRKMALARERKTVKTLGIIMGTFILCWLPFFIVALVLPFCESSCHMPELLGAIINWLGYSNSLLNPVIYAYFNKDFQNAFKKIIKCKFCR", "test": "[35S]GTPγS binding to mice hippocampal membranes", "format": "biochemical", "method": "The hippocampi of mice were dissected and homogenized in 5 volumes of ice-cold buffer (25 mM Tris-HCl, 0.5 mM dithiothreitol, and 0.5 mM EGTA, pH 7.4). The homogenate was centrifuged (1,000 × g for 5 min at 4 °C) and the resultant supernatant was removed. The remaining pellet was resuspended in buffer, homogenized, and centrifuged. The two supernatants obtained were combined and centrifuged at […] at 4 °C and the pellets were resuspended in membrane preparation buffer. The volumes were adjusted prior to the determination of protein concentration by Bradford method[56] and stored at −80 °C until required. […] The reactions were initiated by the addition of 25 μl [^35S]-GTPγS, followed by a 20 min incubation at 20 °C. The reactions were terminated by rapid filtration. The filters were placed in liquid scintillation cocktail in counting vials. The liquid scintillation spectroscopy was used to measure the radioactivity bound to the filter paper after 10 hour."}, "mice": {"test_system": "mice", "test": "Forced swimming (FS) test", "format": "in vivo, Male Swiss mice", "settings": "5 or 10 mg/kg p.o., vs vehicle, p < 0.05", "method": "Male Swiss mice (weighing between 25–30 g; 6–8 weeks old), provided by Central Animal House of the Federal University of Goiás, were used in all behavioural models. The experimental animals were kept in an intra-laboratory facility cage (32 × 18 × 16 cm) under controlled environmental conditions (23 ± 1 °C, 12 hr light-dark cycle) with access to food and water ad libitum. The experimental protocols (number 104/08) were approved by Ethical Committee of Federal University of Goiás in accordance to the international laws on the care and use of laboratory animals.\nIn the FS model, mice were randomly divided into 5 groups [control (vehicle), 3 different doses of OAD and IMI]. Mice were exposed to a modified version of FS test[48] after oral administration of vehicle, OAD (5, 10 or 20 mg/kg) or IMI 15 mg/kg. FS apparatus is a cylindrical water container (42 cm in height, 18 cm in diameter) filled with water up to 30 cm (total volume ( [drawing 1] of 7635.06 cm^3 at 24 ± 2 °C). In this model, the initial escape-directed behaviour like swimming and climbing by mouse are generally followed with a relatively passive and immobile posture. The container was cleaned with 10% ethanol solution prior to the exposure of naïve mouse. This test session (6-min duration) was videotaped and the swimming and immobility time was later scored and analyzed."}},
  "data": [
    {"smiles": "C=CC(=O)O[C@H]1CC[C@]2(C)[C@H]3CC=C4[C@@H]5CC(C)(C)CC[C@]5(C(=O)O)CC[C@@]4(C)[C@]3(C)CC[C@H]2C1(C)C", "note": "[D1, Oleanolic acid acrylate]", "values": [
      {"measurement": "EC50", "setting": "5-HT1A receptor; mice hippocampal membranes, read-out: Agonist potency (pEC50 ± SEM) (converted)", "value": 0.794, "unit": "µM"},
      {"measurement": "Emax", "setting": "5-HT1A receptor; percentage of that produced by 10 μM (+)8-OH-DPAT, read-out: Intrinsic activity (Emax ± SEM in %)", "value": "26 ± 2", "unit": "%"},
      {"measurement": "immobility time in the FS test", "setting": "mice", "value": "reduction"},
      {"measurement": "swimming time in the FS test", "setting": "mice", "value": "significant increase"}
    ]}
  ]
}
